In patent US20200283498A1, “T CELL RECEPTOR FUSIONS AND CONJUGATES AND METHODS OF USE THEREOF” (Altor Bioscience LLC, priority 2008, published 2020):

Assays:
[1] = tested on: human NSCLC A549-A2 tumor cells; assay: Adoptive transfer of preincubated NK cells in A549-A2 experimental metastasis model; type: in vivo, athymic nude mice; details: CTX 200 mg/kg ip days 14, 21; NK cells preincubated with the protein iv days 16, 22 (CTX group: no NK cells)
immune cells = type: in vivo, human
Method: FIG. 33A is a line graph showing serum IFN-γ levels (determined by ELISA analysis) of subjects following treatment with 0.04 mg/kg ALT-801 (MTD level). FIG. 33B is a line graph showing IFN-γ ELISPOT analysis of PBMCs for subjects treated with 0.04 mg/kg ALT-801 (MTD level). Peripheral blood mononuclear cells (PBMCs) were prepared from samples collected pre-dosing (Cycles 1 & 2) and 2 hours after the drug infusion of dose 3 and 7. Following overnight incubation in medium alone or medium containing ALT-801, p53-positive A375 tumor cells or ALT-801+A375 tumor cells, activated immune effector cells were measured using ELISPOT for IFN-γ production
Based on PK profile, the IL-2 receptors on the surface of immune cells (i.e. NK cells and T-cells) in the patient are anticipated to be fully occupied by the ALT-801 circulating in the patient's serum when a dose of 0.015 mg/kg or higher is administered. […] IFN-γ is produced by activated NK and T-cells and its induction by ALT-801 likely correlates with an increase in effector cell cytolytic activity that plays a role in the antitumor responses. […] Thus the lack of treatment-related TNF-α expression may contribute to the reduced toxicity observed with ALT-801 treatment compared with high-dose IL-2.
The effects of ALT-801 on cell-mediated immune responses were also examined in treated patients. Blood samples were collected from subjects at pre-dosing on the first study drug infusion day and 2 hours after the drug infusion on the third drug infusion day during the first and second treatment cycles. Peripheral blood mononuclear cells (PBMCs) were prepared and incubated overnight in medium alone or medium containing ALT-801, p53-positive A375 tumor cells or ALT-801+A375 tumor cells. Levels of activated immune effector cells were measured using ELISPOT for interferon-gamma (IFN-γ) production. […] These cells were not found in the blood during the treatment cycle (i.e. Dose 3 and Dose 7 samples), consistent with lymphocyte migration to the tumor site. […] Together, these findings indicate that ALT-801 treatment at the MTD level provided favorable pharmacokinetics and immunostimulatory activity necessary for antitumor responses.

[2] = tested on: metastatic malignancies that express HLA-A2/p53 peptide complexes; assay: Phase I/IIa clinical study of ALT-801: tumor assessment (RECIST); type: in vivo, human
Method: FIG. 35 sets forth Table 2 depicting preliminary tumor assessment for evaluable subjects treated with 0.015, 0.04 or 0.08 mg/kg ALT-801. […] For SD (highlighted), change in target lesions compared to baseline is indicated at week 7 or 11 after the first dose.
ALT-801 is currently being evaluated in a multi-course dose-escalation Phase I/IIa clinical study in patients with metastatic malignancies that express HLA-A2/p53 peptide complexes, the antigenic target of ALT-801. The primary endpoints in this dose-escalation study are to evaluate the safety, determine the maximum-tolerated dose (MTD), and characterize the pharmacokinetic profile of ALT-801 administered to patients with progressive metastatic malignancies. Secondary endpoints include evaluation of ALT-801 immunogenicity and assessment of the patient's immune response and anti-tumor response. Each subject enrolled receives up to a total of 8 doses of the study drug in the following schedule: once daily as an intravenous bolus for the first 4 days (cycle 1), followed by a 10-day rest period of no study drug treatment (rest period) and then once daily as an intravenous bolus for an additional 4 days (cycle 2). The trial design includes a dose escalation phase of 3-6 subjects/cohort with starting dose of 0.015 mg/kg (equivalent to approximately 50,000 IL-2 IU/kg) and an expansion phase with 10 additional patients treated at the MTD level. At least 23 patients have been treated with at least one dose of ALT-801 at the 0.015 mg/kg (4 patients), 0.04 mg/kg (13 patients) and 0.08 mg/kg (6 patients).
The effects of ALT-801 on tumors was assessed based on RECIST criteria by comparing baseline (pre-dose) CT scans with those taken in follow-up visits at week 7 and 11.

[3] = tested on: human PBMCs and purified NK cells; assay: In vitro activation of human PBMCs and purified NK cells by ALT-801; type: cell-based; details: concentrations observed in patients; overnight incubation

ALT-801: recombinant humanized soluble single-chain TCR-cytokine fusion protein: human TCR β constant domain, murine TCR antigen-binding regions, human IL2; p53 (aa 264-272)/HLA-A2.1 specific
Median survival [1]: 85.5 days
serum IFN-γ induction by dose level (immune cells; 0.04 mg/kg or 0.08 mg/kg): equivalent levels of serum IFN-γ induction that were higher than those observed at the 0.015 mg/kg dose level
serum IFN-γ concentrations (immune cells; 4-8 hours after dosing, particularly following the fourth dose): increase in serum IFN-γ concentrations
immune cells responsive to ALT-801+A375 tumor cells (ELISPOT) (immune cells; Pre-dose Cycle-2 sample): increase in immune cells responsive to ALT-801+A375 tumor cells
IFN-γ-positive cells in blood (ELISPOT) (immune cells; during the 2-cycle course of treatment): little or no increase in IFN-γ-positive cells
patients with stable disease status ([2]; 11 weeks after treatment): approximately 50%
tumor shrinkage ([2]; cohort 3 subjects with stable disease): up to 23%
subjects with stable disease, cohort 3 ([2]; six evaluated subjects): four (three with melanoma and one with renal cell carcinoma) of six evaluated subjects of cohort 3 showed stable disease
subjects with stable disease, cohort 2 ([2]; six subjects): three (prostate cancer, head and neck cancer and renal cell carcinoma) have achieved stable disease status
change in target lesion LD compared to baseline ([2]; subject 02004 Metastatic Head and Neck, second course 0.04 mg/kg, over 9 month): −3.3%
activation of human PBMCs and purified NK cells [3]: able to fully activate human PBMCs and purified NK cells
